Target: PA1221 (Pseudomonas aeruginosa, UniProt Q9I4B7)
Experiment: […]-PPi exchange assay
Format: biochemical
Settings: 2 mM ATP, 0.2 mM PPi, 1 mM MgCl2, pH 7.5, 37 °C

Compound | 32P-PPi exchange assay (5 mM Ile) | 32P-PPi exchange assay (5 mM valine)
CC[C@H](C)[C@H](N)C(=O)O [I, Ile] | Ile, Leu, and Ala utilized as substrates at a lower rate | 
CC(C)[C@H](N)C(=O)O [V, valine] |  | Valine resulted in the highest activity

— PMC3332334 (Biochemistry, 2012)
